Measured values from patent US12030878B2 (BRISTOL-MYERS SQUIBB COMPANY, priority 2017, dated 2024).

What was measured:
Format in all cases: cell-based
[1] = molecular target: T1, human TLR7 (Homo sapiens, UniProt Q9NYK1); experiment: TLR7 inhibition reporter assay (HEK-Blue SEAP); conditions: HEK-Blue cells overexpressing human TLR7, stimulated with gardiquimod 7.5 μM, 22 hour incubation
T1 construct: host or cells: HEK-Blue cells
T1 sequence (Q9NYK1 27-1049): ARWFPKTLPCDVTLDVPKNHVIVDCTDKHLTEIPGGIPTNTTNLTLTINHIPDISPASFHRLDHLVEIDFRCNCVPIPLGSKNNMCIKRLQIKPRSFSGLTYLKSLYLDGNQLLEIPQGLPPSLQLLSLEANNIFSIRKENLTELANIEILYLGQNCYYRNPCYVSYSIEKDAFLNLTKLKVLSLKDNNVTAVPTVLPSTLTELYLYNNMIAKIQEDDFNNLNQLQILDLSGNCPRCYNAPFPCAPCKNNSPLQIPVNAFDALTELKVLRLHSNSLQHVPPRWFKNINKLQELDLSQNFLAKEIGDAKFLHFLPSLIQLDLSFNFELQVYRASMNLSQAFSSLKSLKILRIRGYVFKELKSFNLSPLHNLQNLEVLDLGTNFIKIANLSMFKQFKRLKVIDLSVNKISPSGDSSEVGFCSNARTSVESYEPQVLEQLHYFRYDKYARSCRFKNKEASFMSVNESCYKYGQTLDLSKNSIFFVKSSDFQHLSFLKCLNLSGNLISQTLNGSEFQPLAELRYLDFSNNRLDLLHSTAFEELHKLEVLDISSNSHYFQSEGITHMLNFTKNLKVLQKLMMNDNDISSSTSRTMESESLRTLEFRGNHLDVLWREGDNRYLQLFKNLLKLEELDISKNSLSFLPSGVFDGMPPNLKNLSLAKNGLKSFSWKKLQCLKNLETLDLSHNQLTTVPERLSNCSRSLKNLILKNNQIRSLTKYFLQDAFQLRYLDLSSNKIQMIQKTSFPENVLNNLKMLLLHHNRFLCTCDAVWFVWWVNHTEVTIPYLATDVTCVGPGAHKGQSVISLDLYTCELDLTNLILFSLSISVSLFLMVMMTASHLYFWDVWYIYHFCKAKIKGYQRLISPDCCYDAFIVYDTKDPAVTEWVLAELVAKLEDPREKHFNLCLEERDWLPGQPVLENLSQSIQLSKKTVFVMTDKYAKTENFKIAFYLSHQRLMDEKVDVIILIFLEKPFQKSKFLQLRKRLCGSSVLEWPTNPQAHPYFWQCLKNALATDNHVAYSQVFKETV
Summary of the method: (§1)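 HEK-Blue cells with NF-κB/AP-1-driven SEAP reporter; compounds 0.05 nM-50 μM, 30 min pre-treatment at room temperature, then agonist: gardiquimod 7.5 μM (TLR7), R848 15.9 μM (TLR8) or ODN2006 5 nM (TLR9). SEAP read after 22 h at 37 °C; percent inhibition versus agonist-plus-DMSO and reference-inhibitor wells.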

[2] = molecular target: T2, human TLR8 (Homo sapiens, UniProt Q9NR97); experiment: TLR8 inhibition reporter assay (HEK-Blue SEAP); conditions: HEK-Blue cells overexpressing human TLR8, stimulated with R848 15.9 μM, 22 hour incubation
T2 construct: host or cells: HEK-Blue cells
T2 sequence (Q9NR97 27-1041): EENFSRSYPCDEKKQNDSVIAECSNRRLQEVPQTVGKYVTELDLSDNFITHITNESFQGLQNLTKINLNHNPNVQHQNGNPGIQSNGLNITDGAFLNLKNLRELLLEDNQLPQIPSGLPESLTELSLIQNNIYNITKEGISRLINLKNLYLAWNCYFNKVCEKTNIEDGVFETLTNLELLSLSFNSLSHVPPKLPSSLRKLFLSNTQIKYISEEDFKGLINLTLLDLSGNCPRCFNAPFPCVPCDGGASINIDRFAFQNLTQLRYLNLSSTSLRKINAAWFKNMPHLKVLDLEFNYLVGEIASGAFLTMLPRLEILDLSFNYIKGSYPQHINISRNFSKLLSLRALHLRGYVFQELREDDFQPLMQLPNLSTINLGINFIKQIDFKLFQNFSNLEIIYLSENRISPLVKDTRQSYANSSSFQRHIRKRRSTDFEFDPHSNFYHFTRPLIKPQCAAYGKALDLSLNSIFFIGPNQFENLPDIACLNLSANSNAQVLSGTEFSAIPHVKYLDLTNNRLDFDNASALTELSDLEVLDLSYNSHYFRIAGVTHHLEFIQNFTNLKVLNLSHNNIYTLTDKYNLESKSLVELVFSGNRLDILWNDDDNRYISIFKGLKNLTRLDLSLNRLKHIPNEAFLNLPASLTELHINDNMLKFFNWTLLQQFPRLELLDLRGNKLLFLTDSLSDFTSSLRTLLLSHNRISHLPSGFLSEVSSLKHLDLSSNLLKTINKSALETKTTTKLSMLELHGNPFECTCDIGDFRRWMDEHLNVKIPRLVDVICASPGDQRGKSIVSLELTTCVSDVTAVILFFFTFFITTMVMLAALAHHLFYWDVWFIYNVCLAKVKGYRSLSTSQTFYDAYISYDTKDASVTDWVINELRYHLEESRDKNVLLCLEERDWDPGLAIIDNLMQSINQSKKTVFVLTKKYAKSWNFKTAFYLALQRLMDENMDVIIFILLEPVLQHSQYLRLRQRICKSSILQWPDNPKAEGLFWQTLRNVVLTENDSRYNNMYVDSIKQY
Summary of the method: as §1

[3] = molecular target: T3, human TLR9 (Homo sapiens, UniProt Q9NR96); experiment: TLR9 inhibition reporter assay (HEK-Blue SEAP); conditions: HEK-Blue cells overexpressing human TLR9, stimulated with ODN2006 5 nM, 22 hour incubation
T3 construct: host or cells: HEK-Blue cells
T3 sequence (Q9NR96 26-1032): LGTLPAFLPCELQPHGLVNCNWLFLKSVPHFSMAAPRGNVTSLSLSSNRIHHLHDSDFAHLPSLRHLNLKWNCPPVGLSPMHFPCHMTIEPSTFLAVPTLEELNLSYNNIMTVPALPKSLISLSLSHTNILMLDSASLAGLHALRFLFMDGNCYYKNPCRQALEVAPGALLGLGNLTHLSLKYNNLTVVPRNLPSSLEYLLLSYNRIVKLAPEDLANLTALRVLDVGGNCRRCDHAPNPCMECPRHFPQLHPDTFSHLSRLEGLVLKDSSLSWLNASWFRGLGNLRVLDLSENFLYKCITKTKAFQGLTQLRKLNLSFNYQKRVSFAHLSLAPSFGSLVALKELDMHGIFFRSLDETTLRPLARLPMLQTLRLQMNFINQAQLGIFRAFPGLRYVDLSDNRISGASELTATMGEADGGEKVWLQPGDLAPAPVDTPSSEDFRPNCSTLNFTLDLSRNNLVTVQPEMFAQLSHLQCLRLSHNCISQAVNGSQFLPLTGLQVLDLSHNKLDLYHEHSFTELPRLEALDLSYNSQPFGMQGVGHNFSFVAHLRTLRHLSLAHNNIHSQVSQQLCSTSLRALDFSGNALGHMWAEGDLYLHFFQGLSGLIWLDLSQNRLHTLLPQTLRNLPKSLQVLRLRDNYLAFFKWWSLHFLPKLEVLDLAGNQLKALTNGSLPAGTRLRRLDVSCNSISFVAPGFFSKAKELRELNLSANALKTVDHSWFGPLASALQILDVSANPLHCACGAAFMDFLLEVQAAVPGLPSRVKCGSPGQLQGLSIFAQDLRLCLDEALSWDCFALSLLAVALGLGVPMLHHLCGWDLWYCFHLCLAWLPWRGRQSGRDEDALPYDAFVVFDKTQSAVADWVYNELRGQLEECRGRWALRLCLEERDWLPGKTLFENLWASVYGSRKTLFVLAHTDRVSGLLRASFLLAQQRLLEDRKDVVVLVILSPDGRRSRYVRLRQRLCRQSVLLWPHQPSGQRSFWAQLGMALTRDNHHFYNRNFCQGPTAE
Summary of the method: as §1

In the case of Cc1cc(-c2[nH]c3ccc(OCC4CCN(C(C)C)CC4)cc3c2C(C)C)cn(C)c1=O [Example 36, 5-(3-isopropyl-5-((1-isopropylpiperidin-4-yl)methoxy)-1H-indol-2-yl)-1,3-dimethylpyridin-2(1H)-one], the IC50 [1] is reported as 5.6 nM, the IC50 [2] is reported as 2.4 nM and the IC50 [3] is reported as 10600 nM.
COc1ccc(-c2[nH]c3ccc(OCC(=O)NC4CCC(N)CC4)cc3c2C(C)C)cc1OC (stereo not drawn) [Example 131, N-(4-aminocyclohexyl)-2-((2-(3,4-dimethoxyphenyl)-3-isopropyl-1H-indol-5-yl)oxy) acetamide] showed an IC50 [1] of 293 nM, an IC50 [2] of 18.3 nM and an IC50 [3] of 908 nM.
With Cc1cc(-c2[nH]c3ccc(OC4CCN(CC(C)C)CC4)cc3c2C(C)C)cn2ncnc12 [Example 77, 6-(5-((1-isobutylpiperidin-4-yl)oxy)-3-isopropyl-1H-indol-2-yl)-8-methyl-[1,2,4]triazolo[1,5-a]pyridine] the IC50 [1] was 2.9 nM, the IC50 [2] was 1.4 nM and the IC50 [3] was 2830 nM.
Compound COc1cc(-c2[nH]c3ccc(OC4CCN(C)CC4)cc3c2C(C)C)cn2ncnc12 [Example 65, 6-(3-isopropyl-5-((1-methylpiperidin-4-yl)oxy)-1H-indol-2-yl)-8-methoxy-[1,2,4]triazolo[1,5-a]pyridine] has an IC50 [1] of 0.3 nM, an IC50 [2] of 0.5 nM and an IC50 [3] of 1750 nM.
With Cc1cc(-c2[nH]c3ccc(OCC4CN(C(C)C)C4)cc3c2C(C)C)cn2ncnc12 [Example 58, 6-(3-isopropyl-5-((1-isopropylazetidin-3-yl)methoxy)-1H-indol-2-yl)-8-methyl-[1,2,4] triazolo[1,5-a]pyridine] the IC50 [1] was 1.4 nM, the IC50 [2] was 5.1 nM and the IC50 [3] was 2440 nM.
With COCCN1CCC(Oc2ccc3[nH]c(-c4cc(C)nc(C)c4)c(C(C)C)c3c2)CC1 [Example 75, 2-(2,6-dimethylpyridin-4-yl)-3-isopropyl-5-((1-(2-methoxyethyl)piperidin-4-yl)oxy)-1H-indole] the IC50 [1] was 10.5 nM, the IC50 [2] was 1.5 nM and the IC50 [3] was 663 nM.
In the case of CCc1c(-c2ccnc(C)c2)[nH]c2ccc(OC3CCNCC3)cc12 [Example 163, 3-ethyl-2-(2-methylpyridin-4-yl)-5-(piperidin-4-yloxy)-1H-indole], the IC50 [1] is reported as 146 nM, the IC50 [2] is reported as 9 nM and the IC50 [3] is reported as 1810 nM.
For COc1ccc(-c2[nH]c3ccc(OCC(=O)NC4CC[C@H]5CC[C@@H]4N5C)cc3c2C(C)C)cc1OC (stereo partly drawn) [Example 124, 2-((2-(3,4-dimethoxyphenyl)-3-isopropyl-1H-indol-5-yl)oxy)-N-((5S)-8-methyl-8-azabicyclo[3.2.1]octan-2-yl)acetamide], the IC50 [1] was 227 nM, the IC50 [2] was 51.2 nM and the IC50 [3] was 4030 nM.
Compound Cc1cc(-c2[nH]c3ccc(OCC4CCNCC4)cc3c2C(C)C)cn(C)c1=O [Example 7, 5-(3-isopropyl-5-(piperidin-4-ylmethoxy)-1H-indol-2-yl)-1,3-dimethylpyridin-2(1H)-one] has an IC50 [1] of 2.1 nM, an IC50 [2] of 2.6 nM and an IC50 [3] of 797 nM.
Compound Cc1cc(-c2[nH]c3ccc(OCC(=O)NCCC(C)(C)O)cc3c2C(C)C)ccn1 [Example 155, N-(3-hydroxy-3-methylbutyl)-2-((3-isopropyl-2-(2-methylpyridin-4-yl)-1H-indol-5-yl)oxy)acetamide] has an IC50 [1] of 778 nM, an IC50 [2] of 731 nM and an IC50 [3] greater than 50000 nM.
Cc1cc(-c2[nH]c3ccc(OC4CCN(CCO)CC4)cc3c2C(C)C)cc(C)n1 [Example 70, 2-(4-((2-(2,6-dimethylpyridin-4-yl)-3-isopropyl-1H-indol-5-yl)oxy)piperidin-1-yl) ethan-1-ol] was tested, and the IC50 [1] was 9.6 nM, the IC50 [2] was 1.5 nM and the IC50 [3] was 1040 nM.
In the case of Cc1cc(-c2[nH]c3ccc(OC4CCN(C)CC4)cc3c2C(C)C)cn2ncnc12 [Example 32, 6-(3-isopropyl-5-((1-methylpiperidin-4-yl)oxy)-1H-indol-2-yl)-8-methyl-[1,2,4]triazolo[1,5-a]pyridine], the IC50 [1] is reported as 0.9 nM, the IC50 [2] is reported as 1 nM and the IC50 [3] is reported as 1620 nM.
Cc1cc(-c2[nH]c3ccc(OCC4CCN(C5CCOCC5)CC4)cc3c2C(C)C)cn2ncnc12 [Example 44, 6-(3-isopropyl-5-((1-(tetrahydro-2H-pyran-4-yl)piperidin-4-yl)methoxy)-1H-indol-2-yl)-8-methyl-[1,2,4]triazolo[1,5-a]pyridine] showed an IC50 [1] of 0.6 nM, an IC50 [2] of 1.4 nM and an IC50 [3] of 1030 nM.
Compound Cc1cc(-c2[nH]c3ccc(OC4CCN(CC(=O)N(C)C)CC4)cc3c2C(C)C)cn2ncnc12 [Example 85, 2-(4-((3-isopropyl-2-(8-methyl-[1,2,4]triazolo[1,5-a]pyridin-6-yl)-1H-indol-5-yl)oxy)piperidin-1-yl)-N,N-dimethylacetamide] has an IC50 [1] of 2.1 nM, an IC50 [2] of 2.9 nM and an IC50 [3] of 1350 nM.
Work on Cc1c(-c2[nH]c3ccc(OC4CCN(C5COC5)CC4)cc3c2C(C)C)cn2cnnc2c1C [Example 56, 6-(3-isopropyl-5-((1-(oxetan-3-yl)piperidin-4-yl)oxy)-1H-indol-2-yl)-7,8-dimethyl-[1,2,4]triazolo[4,3-a]pyridine] yielded an IC50 [1] of 26.3 nM, an IC50 [2] of 19.4 nM and an IC50 [3] of 19300 nM.
